Reference: patent US20190086410A1, “FUNCTION-BASED PROBES FOR ENVIRONMENTAL MICROBIOME ANALYSIS AND METHODS OF MAKING AND USING THE SAME” (Battelle Memorial Institute, priority 2017, published 2019)

Columns and labels:
[1] = system: mix of WT E. coli and L. plantarum; assay: Whole-cell probe labeling coupled to flow cytometry/FACS, mix of E. coli and L. plantarum; assay type: cell-based, Lactobacillus plantarum
[2] = system: β-glucuronidases from Escherichia coli, Streptococcus agalactiae, and Clostridium perfringens; assay type: biochemical; conditions: wild-type enzymes; fluorescence SDS-PAGE
[3] = system: WT E. coli; assay: Whole-cell probe labeling coupled to flow cytometry/FACS, E. coli only; assay type: cell-based; conditions: 50 μM
[4] = target: β-glucuronidase (uidA) (Escherichia coli, UniProt P05804); assay type: cell-based, E. coli
[5] = system: β-glucuronidase (uidA); assay type: cell-based, E. coli; conditions: ΔuidA strain lacking β-glucuronidase
[6] = system: Lactobacillus plantarum, which lacks a β-glucuronidase; assay: Whole-cell probe labeling coupled to flow cytometry/FACS, L. plantarum only; assay type: cell-based; conditions: 50 μM
[7] = system: glucuronidase activity in the gut microbiome; assay type: in vivo, mouse; conditions: in 4 of 5 sets of littermates; vancomycin in water vs water
Description: Microbial cells from the mouse gut were suspended in PBS with a protease inhibitor (COMPLETE® EDTA-free Protease Inhibitor, ROCHE®) and lysed via bead beating (BULLET BLENDER®). β-glucuronidase assays were conducted as previously described with modifications. Briefly, 4-methylumbelliferyl-β-D-glucuronide (4-MUG; 1 mM) was added to 50 μL lysate (0.9 μg total protein) for a final concentration of 500 μM. At specific time points (0-240 minutes), 10 μL aliquots of each reaction were added to 90 μL of 0.1 M […] (pH=10) and stored in the dark. Fluorescence was measured using a plate reader (MOLECULAR BIOSCIENCES®), and the amount of hydrolyzed substrate was calculated relative to a standard curve. The rate (mM/s) was determined via linear regression (GRAPHPAD® PRISM®), and activity was calculated as rate per μg protein. Values from three independent replicates were averaged, and activity was compared across biological replicates (n=5) using a ratio paired t-test.
Pairs of littermates were exposed to water with or without vancomycin, an antibiotic known to target Firmicutes in the gut microbiota (FIG. 12). As Firmicutes made up most the probe-positive taxa in the non-treated mice (FIG. 13), vancomycin treatment may shift the GlcA-ABP+ population composition. […] Accordingly, the intensity of GlcA-ABP+ labeling decreased as well (FIG. 14B).

[8] = system: gut microbiota; assay type: in vivo, mouse
[9] = vancomycin-treated vs untreated littermates

Chain of β-glucuronidase (uidA) (Escherichia coli, UniProt P05804) (P05804 whole entry): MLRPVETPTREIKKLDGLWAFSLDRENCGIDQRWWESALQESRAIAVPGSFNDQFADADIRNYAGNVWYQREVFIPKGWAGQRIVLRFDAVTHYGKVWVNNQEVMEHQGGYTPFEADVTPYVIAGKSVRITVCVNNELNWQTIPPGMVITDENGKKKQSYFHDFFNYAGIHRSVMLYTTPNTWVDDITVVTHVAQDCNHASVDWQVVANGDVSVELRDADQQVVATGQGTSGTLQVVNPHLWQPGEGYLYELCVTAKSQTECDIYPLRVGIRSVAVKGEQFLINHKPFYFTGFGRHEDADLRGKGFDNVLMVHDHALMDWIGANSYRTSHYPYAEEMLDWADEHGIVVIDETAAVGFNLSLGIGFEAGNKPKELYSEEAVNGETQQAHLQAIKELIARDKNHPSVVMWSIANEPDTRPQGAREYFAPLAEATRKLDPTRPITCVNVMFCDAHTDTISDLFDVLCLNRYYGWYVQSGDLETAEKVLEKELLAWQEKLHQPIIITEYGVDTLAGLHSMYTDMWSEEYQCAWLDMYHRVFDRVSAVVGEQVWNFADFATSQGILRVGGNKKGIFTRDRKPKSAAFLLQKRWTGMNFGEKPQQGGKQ

In the case of `C#CCCCC(=O)Nc1ccc(OC2OC(C(=O)O)C(O)C(O)C2O)c(C(F)F)c1` (stereo not drawn) [GlcA-ABP, 6-(2-(difluoromethyl)-4-(hex-5-ynamido)phenoxy)-3,4,5-trihydroxytetrahydro-2H-pyran-2-carboxylic acid], the “cell labeling, flow cytometry” value ([1]; mixture of E. coli and L. plantarum, 50 μM) is reported as “an intermediate amount”, the “GlcA-ABP labeling intensity of purified β-glucuronidases” value [2] is reported as “corresponded with the catalytic efficiency of these enzymes” and the “cell labeling, flow cytometry” value [3] is reported as “labeling was observed”. The “labeling in ΔuidA complemented with uidA” value ([4]; SDS-PAGE and flow cytometry) was “restoration of labeling”, the “labeling of β-glucuronidase in wild type (WT) E. coli” value ([4]; WT E. coli, SDS-PAGE) was “Dose-dependent labeling” and the “labeling in ΔuidA E. coli” value [5] was “no labeling”. For the same molecule, the “cell labeling, flow cytometry” value [6] was “none”.
For `CN[C@H](CC(C)C)C(=O)N[C@H]1C(=O)N[C@@H](CC(N)=O)C(=O)N[C@H]2C(=O)N[C@H]3C(=O)N[C@H](C(=O)N[C@H](C(=O)O)c4cc(O)cc(O)c4-c4cc3ccc4O)[C@H](O)c3ccc(c(Cl)c3)Oc3cc2cc(c3O[C@@H]2O[C@H](CO)[C@@H](O)[C@H](O)[C@H]2O[C@H]2C[C@](C)(N)[C@H](O)[C@H](C)O2)Oc2ccc(cc2Cl)[C@H]1O` [Vancomycin, vancomycin], the “glucuronidase activity in gut microbiome after treatment” value [7] was “reduced, but did not eliminate”, the “relative abundance of Firmicutes” value [8, 9] was “dramatically decreased” and the “relative abundance of Proteobacteria, Verrucomicrobia, and Bacteroidetes” value [8, 9] was “corresponding increase”. For the same molecule, the “intensity of GlcA-ABP+ labeling after treatment” value ([8]; vancomycin-treated vs untreated mice) was “decreased”.
In the case of `C#CCCCCNC(=O)CI` [IAA, iodoacetamide alkyne, reference compound], the “cell labeling by positive control probe, flow cytometry” value ([1]; E. coli only, L. plantarum only, or mix, 10 μM) is reported as “all cells were labeled”.
